ChEMBL document CHEMBL1909046, “DrugMatrix in vitro pharmacology data”
pIC50, pKi: −log10 of the molar value.

What was measured:
[1] = target: T1, Alpha-1A adrenergic receptor (Rattus norvegicus, UniProt P43140); experiment: DRUGMATRIX: Alpha-1A adrenergic receptor radioligand binding (ligand: prazosin); type: cell membranes, Wistar, Submaxillary gland, Membrane; conditions: Not Active = under 50% inhibition at 10 µM
T1 sequence (P43140 whole entry): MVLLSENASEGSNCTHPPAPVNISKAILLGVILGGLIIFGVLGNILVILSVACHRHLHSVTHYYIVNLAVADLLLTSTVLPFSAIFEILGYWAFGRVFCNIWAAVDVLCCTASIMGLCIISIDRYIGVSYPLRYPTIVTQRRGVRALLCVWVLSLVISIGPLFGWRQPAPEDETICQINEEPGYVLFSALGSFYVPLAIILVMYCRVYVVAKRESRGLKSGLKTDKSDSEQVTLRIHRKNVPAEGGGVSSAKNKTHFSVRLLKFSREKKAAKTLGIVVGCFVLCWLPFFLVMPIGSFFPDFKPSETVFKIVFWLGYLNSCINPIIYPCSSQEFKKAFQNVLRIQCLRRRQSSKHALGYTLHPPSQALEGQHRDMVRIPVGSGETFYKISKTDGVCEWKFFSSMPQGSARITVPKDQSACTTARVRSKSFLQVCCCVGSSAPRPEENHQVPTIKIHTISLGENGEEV

[2] = target: 5-hydroxytryptamine receptor 2B (Homo sapiens, UniProt P41595); type: cell membranes, CHO-K1, Membrane; conditions: for IC50: cho-k1; for pIC50: read-out: IC50; for pKi: read-out: Ki; for all read-outs here: in other assays of this panel Not Active means under 50% inhibition at 10 µM
Sequence of 5-hydroxytryptamine receptor 2B (P41595 whole entry): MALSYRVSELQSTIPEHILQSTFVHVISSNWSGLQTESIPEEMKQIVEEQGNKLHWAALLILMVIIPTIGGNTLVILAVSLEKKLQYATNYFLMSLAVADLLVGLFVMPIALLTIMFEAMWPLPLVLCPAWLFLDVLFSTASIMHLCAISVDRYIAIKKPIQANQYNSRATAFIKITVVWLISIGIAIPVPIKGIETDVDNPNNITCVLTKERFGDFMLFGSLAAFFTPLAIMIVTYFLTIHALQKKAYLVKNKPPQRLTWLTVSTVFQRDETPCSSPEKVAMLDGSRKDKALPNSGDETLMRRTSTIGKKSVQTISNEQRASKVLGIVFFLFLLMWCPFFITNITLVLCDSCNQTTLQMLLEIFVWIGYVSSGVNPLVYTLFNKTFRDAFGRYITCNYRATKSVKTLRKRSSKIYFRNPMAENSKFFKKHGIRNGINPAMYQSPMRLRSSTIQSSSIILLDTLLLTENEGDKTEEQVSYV

[3] = target: T2, 5-hydroxytryptamine receptor 2C (Homo sapiens, UniProt P28335); experiment: DRUGMATRIX: Serotonin (5-Hydroxytryptamine) 5-HT2C radioligand binding (ligand: [3H] Mesulergine); type: cell membranes, CHO-K1, Membrane; conditions: Not Active = under 50% inhibition at 10 µM; for IC50: cho-k1
T2 sequence (P28335 whole entry): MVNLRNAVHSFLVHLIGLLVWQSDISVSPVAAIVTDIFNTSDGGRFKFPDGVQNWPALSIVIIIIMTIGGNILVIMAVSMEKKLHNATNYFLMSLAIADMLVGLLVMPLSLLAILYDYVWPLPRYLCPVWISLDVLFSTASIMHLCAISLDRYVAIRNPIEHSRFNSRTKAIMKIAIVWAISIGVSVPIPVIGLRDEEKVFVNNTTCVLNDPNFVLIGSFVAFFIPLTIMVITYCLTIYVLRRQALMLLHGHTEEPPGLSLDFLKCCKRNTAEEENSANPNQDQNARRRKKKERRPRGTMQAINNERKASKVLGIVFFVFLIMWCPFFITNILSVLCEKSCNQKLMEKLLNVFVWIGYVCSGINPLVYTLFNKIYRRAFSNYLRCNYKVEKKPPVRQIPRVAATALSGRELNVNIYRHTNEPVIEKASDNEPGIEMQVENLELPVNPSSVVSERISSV

[4] = DRUGMATRIX: Glutamate, Kainate radioligand binding (ligand: [3H] Kainic acid); type: cell membranes, Rattus norvegicus, Wistar, Brain, Membrane; conditions: Not Active = under 50% inhibition at 10 µM
[5] = DRUGMATRIX: Phosphodiesterase PDE4 enzyme inhibition (substrate: [3H]cAMP + cAMP); conditions: u-937; Not Active = under 50% inhibition at 10 µM
Cytochrome P450 2C9 = Cytochrome P450 2C9 (Homo sapiens, UniProt P11712); conditions: bti-tn-5b1-4; note: in other assays of this panel Not Active means under 50% inhibition at 10 µM
Sequence of Cytochrome P450 2C9 (P11712 whole entry): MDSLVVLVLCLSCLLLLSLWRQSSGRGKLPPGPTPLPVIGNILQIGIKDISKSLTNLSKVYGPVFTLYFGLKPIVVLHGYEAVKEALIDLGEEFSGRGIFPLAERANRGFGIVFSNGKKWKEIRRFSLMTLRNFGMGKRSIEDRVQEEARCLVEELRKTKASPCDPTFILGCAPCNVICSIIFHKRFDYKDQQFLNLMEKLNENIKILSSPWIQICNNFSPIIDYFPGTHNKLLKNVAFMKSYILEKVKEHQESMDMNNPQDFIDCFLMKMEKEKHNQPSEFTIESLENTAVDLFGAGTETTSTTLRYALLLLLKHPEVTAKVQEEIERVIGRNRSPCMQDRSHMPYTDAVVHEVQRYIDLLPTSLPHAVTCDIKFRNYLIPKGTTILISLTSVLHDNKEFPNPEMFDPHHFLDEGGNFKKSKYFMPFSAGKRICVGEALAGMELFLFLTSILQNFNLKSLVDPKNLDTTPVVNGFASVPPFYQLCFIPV

Row | Structure (SMILES) | IC50 [1] | IC50 [2] | IC50 [3] | IC50 [4] | Ki [4] | IC50 [5] | Ki [5] | IC50 (Cytochrome P450 2C9) | Ki (Cytochrome P450 2C9) | pIC50 [2] | pKi [2] | pIC50 ([3]; read-out: IC50) | pKi ([3]; read-out: Ki)
1 | C[C@H]1[C@H](NC(=O)/C(=N\OC(C)(C)C(=O)O)c2csc(N)n2)C(=O)N1S(=O)(=O)O [AZTREONAM] | Not Active | Not Active | Not Active | Not Active | Not Active | Not Active | Not Active | Not Active | Not Active | – | – | – | –
2 | O=C(O)CCNC(=O)c1ccc(/N=N/c2ccc(O)c(C(=O)O)c2)cc1 [BALSALAZIDE] | Not Active | Not Active | Not Active | Not Active | Not Active | Not Active | Not Active | Not Active | Not Active | – | – | – | –
3 | COc1cc(OC)c(C(=O)CCCN2CCCC2)c(OC)c1 [BUFLOMEDIL] | Not Active | Not Active | Not Active | Not Active | Not Active | Not Active | Not Active | Not Active | Not Active | – | – | – | –
4 | Cn1c(=O)c2c(ncn2C)n(C)c1=O [CAFFEINE] | Not Active | Not Active | Not Active | Not Active | Not Active | Not Active | Not Active | Not Active | Not Active | – | – | – | –
5 | ClC(Cl)(Cl)Cl [CARBON TETRACHLORIDE] | Not Active | Not Active | Not Active | Not Active | Not Active | Not Active | Not Active | Not Active | Not Active | – | – | – | –
6 | CO/N=C(\C(=O)N[C@@H]1C(=O)N2C(C(=O)O)=C(COC(C)=O)CS[C@H]12)c1csc(N)n1 [CEFOTAXIME] | Not Active | Not Active | Not Active | Not Active | Not Active | Not Active | Not Active | Not Active | Not Active | – | – | – | –
7 | CNC1=Nc2ccc(Cl)cc2C(c2ccccc2)=[N+]([O-])C1 [CHLORDIAZEPOXIDE] | Not Active | Not Active | Not Active | Not Active | Not Active | Not Active | Not Active | Not Active | Not Active | – | – | – | –
8 | Cc1cc(O)cc(C)c1Cl [CHLOROXYLENOL] | Not Active | – | Not Active | Not Active | Not Active | Not Active | Not Active | Not Active | Not Active | 5.73 | 5.93 | – | –
9 | CCCNC(=O)NS(=O)(=O)c1ccc(Cl)cc1 [CHLORPROPAMIDE] | Not Active | Not Active | Not Active | Not Active | Not Active | Not Active | Not Active | Not Active | Not Active | – | – | – | –
10 | NS(=O)(=O)c1cc(C2(O)NC(=O)c3ccccc32)ccc1Cl (configuration not stated) [CHLORTHALIDONE] | Not Active | Not Active | Not Active | Not Active | Not Active | Not Active | Not Active | Not Active | Not Active | – | – | – | –
11 | O=C(O)CC(O)(CC(=O)O)C(=O)O [CITRIC ACID] | Not Active | Not Active | Not Active | Not Active | Not Active | Not Active | Not Active | Not Active | Not Active | – | – | – | –
12 | CC(C)NCC(O)c1ccccc1Cl (configuration not stated) [CLORPRENALINE] | Not Active | Not Active | Not Active | Not Active | Not Active | Not Active | Not Active | Not Active | Not Active | – | – | – | –
13 | CN1CCN(C(c2ccccc2)c2ccccc2)CC1 [CYCLIZINE] | Not Active | – | – | Not Active | Not Active | Not Active | Not Active | Not Active | Not Active | 6.43 | 6.62 | 5.99 | 6.27
14 | CN1C[C@@H]2C[C@H]1CN2c1cc2c(cc1F)c(=O)c(C(=O)O)cn2C1CC1 [DANOFLOXACIN] | Not Active | Not Active | Not Active | Not Active | Not Active | Not Active | Not Active | Not Active | Not Active | – | – | – | –
15 | COc1cccc2c1C(=O)c1c(O)c3c(c(O)c1C2=O)C[C@@](O)(C(C)=O)C[C@@H]3O[C@H]1C[C@H](N)[C@H](O)[C@H](C)O1 [DAUNORUBICIN] | Not Active | Not Active | Not Active | Not Active | Not Active | Not Active | Not Active | Not Active | Not Active | – | – | – | –
16 | O=C(O)c1cc(-c2ccc(F)cc2F)ccc1O [DIFLUNISAL] | Not Active | Not Active | Not Active | Not Active | Not Active | Not Active | Not Active | Not Active | Not Active | – | – | – | –
17 | C[S+](C)[O-] [DIMETHYL SULFOXIDE] | Not Active | Not Active | Not Active | Not Active | Not Active | Not Active | Not Active | Not Active | Not Active | – | – | – | –
18 | CC1=NN(c2ccccc2)C(=O)C1 [EDARAVONE] | Not Active | Not Active | Not Active | Not Active | Not Active | Not Active | Not Active | Not Active | Not Active | – | – | – | –
19 | C[C@]12CC[C@@H]3c4ccc(O)cc4CC[C@H]3[C@@H]1C[C@@H](O)[C@@H]2O [ESTRIOL] | Not Active | Not Active | Not Active | Not Active | Not Active | Not Active | Not Active | Not Active | Not Active | – | – | – | –
20 | C#C[C@]1(O)CC[C@H]2[C@@H]3CCC4=CC(=O)CC[C@]4(C)[C@H]3CC[C@@]21C [ETHISTERONE] | Not Active | Not Active | Not Active | Not Active | Not Active | Not Active | Not Active | Not Active | Not Active | – | – | – | –
21 | CC(O)(P(=O)(O)O)P(=O)(O)O [ETIDRONIC ACID] | Not Active | Not Active | Not Active | Not Active | Not Active | Not Active | Not Active | Not Active | Not Active | – | – | – | –
22 | CN1CCN(c2c(F)cc3c(=O)c(C(=O)O)cn(CCF)c3c2F)CC1 [FLEROXACIN] | Not Active | Not Active | Not Active | Not Active | Not Active | Not Active | Not Active | Not Active | Not Active | – | – | – | –
23 | O=c1[nH]c(=O)n([C@H]2C[C@H](O)[C@@H](CO)O2)cc1F [FLOXURIDINE] | Not Active | Not Active | Not Active | Not Active | Not Active | Not Active | Not Active | Not Active | Not Active | – | – | – | –
24 | COC(=O)Nc1nc2cc(C(=O)c3ccc(F)cc3)ccc2[nH]1 [FLUBENDAZOLE] | Not Active | Not Active | Not Active | Not Active | Not Active | Not Active | Not Active | Not Active | Not Active | – | – | – | –
25 | CC(=O)OCC(=O)[C@@]1(O)CC[C@H]2[C@@H]3CCC4=CC(=O)CC[C@]4(C)[C@@]3(F)[C@@H](O)C[C@@]21C [FLUDROCORTISONE ACETATE] | Not Active | Not Active | Not Active | Not Active | Not Active | Not Active | Not Active | Not Active | Not Active | – | – | – | –
26 | CCOC(=O)c1ncn2c1CN(C)C(=O)c1cc(F)ccc1-2 [FLUMAZENIL] | Not Active | Not Active | Not Active | Not Active | Not Active | Not Active | Not Active | Not Active | Not Active | – | – | – | –
